The Kinase Knowledgebase extract (Sharma et al. 2016)

These compounds were tested against PIK3CB;PIK3CG;PIK3CD;PIK3CA (human) (UniProt P48736) (assay: Enzyme Assay).
With `COCCN(C)Cc1ccc(-n2nc(C(=O)N3CCOCC3)c3c2-c2ccccc2S(=O)(=O)C3)cc1` the IC50 was 113 nM.
With `O=C(c1nn(C2CCC(CN3CCOCC3)CC2)c2c1CS(=O)(=O)c1ccccc1-2)N1CCOCC1` (stereo not drawn) the IC50 was 912 nM.
Work on `O=C(c1nn(Cc2cnccn2)c2c1CS(=O)(=O)c1ccccc1-2)N1CCOCC1` yielded an IC50 of 10700 nM.
With `CC1CC(C)CC(n2nc(C(=O)N3CCOCC3)c3c2-c2ccccc2S(=O)(=O)C3)C1` (stereo not drawn) the IC50 was 7960 nM.
`Cc1cccc2c1S(=O)(=O)Cc1c(C(=O)N3CCOCC3)nn(-c3ccccc3)c1-2` showed an IC50 of 1740 nM.
`COCCNC(=O)c1cccc(-n2nc(C(=O)N3CCOCC3)c3c2-c2ccccc2S(=O)(=O)C3)c1` was tested, and the IC50 was 1110 nM.
`O=C(c1nn(C2CN(CCN3CCOCC3)C2)c2c1CS(=O)(=O)c1ccccc1-2)N1CCOCC1` showed an IC50 of 236 nM.
Work on `O=C(c1nn(C2CCCN(CCN3CCOCC3)C2)c2c1CS(=O)(=O)c1c(Cl)cccc1-2)N1CCOCC1` (stereo not drawn) yielded an IC50 of 120 nM.
`CC1CN(C(=O)c2nn(-c3ccccc3)c3c2CS(=O)(=O)c2ccccc2-3)CCO1` (stereo not drawn) gave an IC50 of 2160 nM.
Work on `O=C(c1nn(Cc2ccccn2)c2c1CS(=O)(=O)c1ccccc1-2)N1CCOCC1` yielded an IC50 of 3960 nM.
With `CC(C)(C)OC(=O)N1CCCC(n2nc(C(=O)N3CCOCC3)c3c2-c2ccccc2S(=O)(=O)C3)CC1` (stereo not drawn) the IC50 was 824 nM.
`O=C(c1nn([C@@H]2CCCN(CCF)C2)c2c1CS(=O)(=O)c1ccccc1-2)N1CCOCC1` gave an IC50 of 7970 nM.
With `O=C(c1nn(C2CCCN(CCn3cccn3)C2)c2c1CS(=O)(=O)c1c(F)cccc1-2)N1CCOCC1` (stereo not drawn) the IC50 was 80 nM.
In the case of `O=C(c1nn(-c2ccc(CN3CCOCC3)cc2)c2c1CS(=O)(=O)c1ccccc1-2)N1CCOCC1`, the IC50 is reported as 170 nM.
`O=C(c1nn(-c2ccccc2)c2c1CS(=O)(=O)c1ncccc1-2)N1CCOCC1` was tested, and the IC50 was 530 nM.
In the case of `CN(C)C(=O)c1ccc2c(c1)-c1c(c(C(=O)N3CCOCC3)nn1-c1ccccc1)CS2(=O)=O`, the IC50 is reported as 3730 nM.
`O=C(CC1CCOCC1)N1CCC(n2nc(C(=O)N3CCOCC3)c3c2-c2ccccc2S(=O)(=O)C3)C1` (stereo not drawn) gave an IC50 of 733 nM.
`O=C(c1nn(CCN2CCOCC2)c2c1CS(=O)(=O)c1ccccc1-2)N1CCOCC1` was tested, and the IC50 was 795 nM.
`COC1CCN(CCN2CCC[C@H](n3nc(C(=O)N4CCOCC4)c4c3-c3ccccc3S(=O)(=O)C4)C2)CC1` showed an IC50 of 21 nM.
With `O=C(c1nn([C@@H]2CCCN(CCC3CCOCC3)C2)c2c1CS(=O)(=O)c1c(F)cccc1-2)N1CCOCC1` the IC50 was 1920 nM.
`O=C(c1nn(C2CCCC(C(=O)N3CCOCC3)C2)c2c1CS(=O)(=O)c1ccccc1-2)N1CCOCC1` (stereo not drawn) gave an IC50 of 420 nM.
For `O=C(c1nn([C@H]2CCN(CCC3CCOCC3)C2)c2c1CS(=O)(=O)c1c(F)cccc1-2)N1CCOCC1`, the IC50 was 92 nM.
`O=C(c1nn(-c2cccc(CN3CCCC3)c2)c2c1CS(=O)(=O)c1ccccc1-2)N1CCOCC1` was tested, and the IC50 was 516 nM.
`O=C(c1nn(-c2ccc3c(c2)OCCO3)c2c1CS(=O)(=O)c1ccccc1-2)N1CCOCC1` was tested, and the IC50 was 670 nM.
For `COCCN(CCOC)CCN1CCC[C@H](n2nc(C(=O)N3CCOCC3)c3c2-c2ccccc2S(=O)(=O)C3)C1`, the IC50 was 113 nM.
Work on `O=C(c1nn(C2CCN(CCCl)C2)c2c1CS(=O)(=O)c1ccccc1-2)N1CCOCC1` (stereo not drawn) yielded an IC50 of 305 nM.
Compound `COc1ccc2c(c1)S(=O)(=O)Cc1c(C(=O)N3CCOCC3)nn(C)c1-2` has an IC50 of 422 nM.
`O=C(c1nn(-c2ccccc2)c2c1CS(=O)(=O)c1ccc(F)cc1-2)N1CCOCC1` was tested, and the IC50 was 987 nM.
For `O=C(c1nn(C2CCCOC2)c2c1CS(=O)(=O)c1ccccc1-2)N1CCOCC1` (stereo not drawn), the IC50 was 326 nM.
In the case of `CN1CCN(C(=O)c2cccc(-n3nc(C(=O)N4CCOCC4)c4c3-c3ccccc3S(=O)(=O)C4)c2)CC1`, the IC50 is reported as 253 nM.
Work on `COc1ccc2c(c1)S(=O)(=O)Cc1c(C(=O)N3CCOCC3)nn([C@H]3CCCN(CCN4CC(F)(F)C4)C3)c1-2` yielded an IC50 of 15 nM.
`O=C(c1nn(C2CN3CCC2CC3)c2c1CS(=O)(=O)c1ccccc1-2)N1CCOCC1` (stereo not drawn) gave an IC50 of 10200 nM.
With `O=C(c1nn(-c2ccccc2)c2c1CS(=O)(=O)c1cc(C(F)(F)F)ccc1-2)N1CCOCC1` the IC50 was 3060 nM.
With `O=C(c1nn(-c2ccccc2)c2c1CS(=O)(=O)c1sccc1-2)N1CCOCC1` the IC50 was 1700 nM.
For `CC(C)CCOC1CCN(Cc2ccc(-n3nc(C(=O)N4CCOCC4)c4c3-c3ccccc3S(=O)(=O)C4)cc2)C1` (stereo not drawn), the IC50 was 167 nM.
Compound `O=C(c1nn(-c2cccc(N3CCCC3)c2)c2c1CS(=O)(=O)c1ccccc1-2)N1CCOCC1` has an IC50 of 4950 nM.
`CN1CCC(N2CCC[C@H](n3nc(C(=O)N4CCOCC4)c4c3-c3ccccc3S(=O)(=O)C4)C2)CC1` was tested, and the IC50 was 28 nM.
In the case of `C[C@@H]1CN(CCN2CCC[C@H](n3nc(C(=O)N4CCOCC4)c4c3-c3ccccc3S(=O)(=O)C4)C2)C[C@H](C)O1`, the IC50 is reported as 65 nM.
With `O=C(c1nn(-c2ccc3[nH]ncc3c2)c2c1CS(=O)(=O)c1ccccc1-2)N1CCOCC1` the IC50 was 1640 nM.
`COCc1noc(-c2cccc(-n3nc(C(=O)N4CCOCC4)c4c3-c3ccccc3S(=O)(=O)C4)c2)n1` was tested, and the IC50 was 4190 nM.
For `COc1ccc2c(c1)-c1c(c(C(=O)N3CCOCC3)nn1-c1ccccc1)CS2(=O)=O`, the IC50 was 3350 nM.
`O=C(Nc1cccc(-n2nc(C(=O)N3CCOCC3)c3c2-c2ccccc2S(=O)(=O)C3)c1)N1CCOCC1` showed an IC50 of 3590 nM.
`COCCCN1CCC(n2nc(C(=O)N3CCOCC3)c3c2-c2ccccc2S(=O)(=O)C3)C1` (stereo not drawn) was tested, and the IC50 was 923 nM.
With `O=C(c1nn([C@H]2CCCN(CC3CCOCC3)C2)c2c1CS(=O)(=O)c1ccccc1-2)N1CCOCC1` the IC50 was 25 nM.
Compound `O=C(c1nn(C2CCCCC2)c2c1CS(=O)(=O)c1sccc1-2)N1CCOCC1` has an IC50 of 302 nM.
In the case of `O=C(c1nn(C2CCN(CCN3CC[C@H](F)C3)C2)c2c1CS(=O)(=O)c1ccccc1-2)N1CCOCC1` (stereo partly drawn), the IC50 is reported as 192 nM.
With `COc1ccc2c(c1)S(=O)(=O)Cc1c(C(=O)N3CCOCC3)nn([C@H]3CCCN(CCN4CCOCC4)C3)c1-2` the IC50 was 24 nM.
`O=C(c1n[nH]c2c1CS(=O)(=O)c1ccccc1-2)N1CCOCC1` gave an IC50 of 2880 nM.
For `COc1ccc(-n2nc(C(=O)N3CCOCC3)c3c2-c2ccccc2S(=O)(=O)C3)cn1`, the IC50 was 2200 nM.
In the case of `O=C(c1nn(C2CCN(C3CCOCC3)C2)c2c1CS(=O)(=O)c1c(F)cccc1-2)N1CCOCC1` (stereo not drawn), the IC50 is reported as 29 nM.
Compound `CC(C)Cn1nc(C(=O)N2CCOCC2)c2c1-c1ccccc1S(=O)(=O)C2` has an IC50 of 960 nM.
`CC1CCC(n2nc(C(=O)N3CCOCC3)c3c2-c2ccccc2S(=O)(=O)C3)CC1` (stereo not drawn) was tested, and the IC50 was 426 nM.
With `O=C(c1nn(-c2ccccc2)c2c1CS(=O)(=O)c1c(Br)cccc1-2)N1CCOCC1` the IC50 was 494 nM.
`O=C(CCN1CCC[C@H](n2nc(C(=O)N3CCOCC3)c3c2-c2ccccc2S(=O)(=O)C3)C1)N1CCC(F)(F)C1` showed an IC50 of 41 nM.
For `O=C(c1nn(C2CCCN(CCN3CCOCC3)C2)c2c1CS(=O)(=O)c1ccccc1-2)N1CCOCC1` (stereo not drawn), the IC50 was 122 nM.
`Cn1nc(C(=O)N2CCOCC2)c2c1-c1cc(F)ccc1S(=O)(=O)C2` showed an IC50 of 2220 nM.
`O=C(c1nn(C2CCCN(CCN3CC[C@H](F)C3)C2)c2c1CS(=O)(=O)c1ccccc1-2)N1CCOCC1` (stereo partly drawn) showed an IC50 of 72 nM.
For `COc1cccc2c1S(=O)(=O)Cc1c(C(=O)N3CCOCC3)nn([C@H]3CCCN(CCN4CC(F)C4)C3)c1-2`, the IC50 was 62 nM.
In the case of `O=C(c1nn(CC2CCCCC2)c2c1CS(=O)(=O)c1ccccc1-2)N1CCOCC1`, the IC50 is reported as 509 nM.
Work on `O=C(c1nn(-c2ccccc2Cl)c2c1CS(=O)(=O)c1ccccc1-2)N1CCOCC1` yielded an IC50 of 4020 nM.
Compound `Cc1nc2ccc(-n3nc(C(=O)N4CCOCC4)c4c3-c3ccccc3S(=O)(=O)C4)cc2s1` has an IC50 of 662 nM.
Work on `CC(C)CCOC1CCN(Cc2cccc(-n3nc(C(=O)N4CCOCC4)c4c3-c3ccccc3S(=O)(=O)C4)c2)C1` (stereo not drawn) yielded an IC50 of 389 nM.
Compound `Cc1nc(-c2cccc(-n3nc(C(=O)N4CCOCC4)c4c3-c3ccccc3S(=O)(=O)C4)c2)n[nH]1` has an IC50 of 4860 nM.
In the case of `O=C(c1nc(-c2ccccc2)n2c1CS(=O)(=O)c1ccccc1-2)N1CCOCC1`, the IC50 is reported as 2740 nM.
Compound `COC1CCN(CCN2CCC[C@H](n3nc(C(=O)N4CCOCC4)c4c3-c3ccc(F)cc3S(=O)(=O)C4)C2)CC1` has an IC50 of 13 nM.
`O=C(c1nn(C2CCC(O)CC2)c2c1CS(=O)(=O)c1ccccc1-2)N1CCOCC1` (stereo not drawn) was tested, and the IC50 was 512 nM.
For `CN1CCN(Cc2ccc(-n3nc(C(=O)N4CCOCC4)c4c3-c3ccccc3S(=O)(=O)C4)cn2)CC1`, the IC50 was 335 nM.
Compound `O=C(c1nn(C2CCCN(CCC3CCOCC3)C2)c2c1CS(=O)(=O)c1ncccc1-2)N1CCOCC1` (stereo not drawn) has an IC50 of 61 nM.
For `COCCCC1c2c(C(=O)N3CCOCC3)nn(-c3ccccc3)c2-c2ccccc2S1(=O)=O` (stereo not drawn), the IC50 was 5070 nM.
In the case of `O=C(c1nn(-c2ccccc2)c2c1CS(=O)(=O)c1ccsc1-2)N1CCOCC1`, the IC50 is reported as 643 nM.
Work on `COCCNc1ccc2c(c1)-c1c(c(C(=O)N3CCOCC3)nn1-c1ccccc1)CS2(=O)=O` yielded an IC50 of 902 nM.
For `O=C(c1cccc(-n2nc(C(=O)N3CCOCC3)c3c2-c2ccccc2S(=O)(=O)C3)c1)N1CCCC(CO)C1` (stereo not drawn), the IC50 was 502 nM.
Compound `COCCOCCN1CCCC(n2nc(C(=O)N3CCOCC3)c3c2-c2ccccc2S(=O)(=O)C3)C1` (stereo not drawn) has an IC50 of 635 nM.
`CN1CCC(Cn2nc(C(=O)N3CCOCC3)c3c2-c2ccccc2S(=O)(=O)C3)CC1` was tested, and the IC50 was 2650 nM.
Work on `O=C(c1nn(CC2CCCO2)c2c1CS(=O)(=O)c1ccccc1-2)N1CCOCC1` (stereo not drawn) yielded an IC50 of 1560 nM.
`O=C(c1nn(-c2ccccc2Br)c2c1CS(=O)(=O)c1ccccc1-2)N1CCOCC1` gave an IC50 of 5500 nM.
Compound `O=C(c1nn(-c2ccc(CN3CCOCC3)cc2)c2c1CS(=O)(=O)c1ccc(F)cc1-2)N1CCOCC1` has an IC50 of 555 nM.
`CN(C)CCN1CCCC(n2nc(C(=O)N3CCOCC3)c3c2-c2ccccc2S(=O)(=O)C3)C1` (stereo not drawn) gave an IC50 of 72 nM.
In the case of `CS(=O)(=O)C1CCN(Cc2cccc(-n3nc(C(=O)N4CCOCC4)c4c3-c3ccccc3S(=O)(=O)C4)c2)C1` (stereo not drawn), the IC50 is reported as 464 nM.
In the case of `O=C(c1nn(C2CCCN(CCC3CCOCC3)C2)c2c1CS(=O)(=O)c1c(F)cccc1-2)N1CCOCC1` (stereo not drawn), the IC50 is reported as 22 nM.
In the case of `O=C(c1nn(Cc2nc3ccccc3s2)c2c1CS(=O)(=O)c1ccccc1-2)N1CCOCC1`, the IC50 is reported as 1490 nM.
With `COCCN1CCC[C@H](n2nc(C(=O)N3CCOCC3)c3c2-c2cccc(F)c2S(=O)(=O)C3)C1` the IC50 was 31 nM.
`Cc1nnc(-c2cccc(-n3nc(C(=O)N4CCOCC4)c4c3-c3ccccc3S(=O)(=O)C4)c2)s1` showed an IC50 of 661 nM.
`COC(=O)CCN1CCC[C@H](n2nc(C(=O)N3CCOCC3)c3c2-c2ccccc2S(=O)(=O)C3)C1` showed an IC50 of 48 nM.
In the case of `CS(=O)(=O)NCc1ccc(-n2nc(C(=O)N3CCOCC3)c3c2-c2ccccc2S(=O)(=O)C3)cc1`, the IC50 is reported as 421 nM.
`COCCCN1CCCC(n2nc(C(=O)N3CCOCC3)c3c2-c2ccccc2S(=O)(=O)C3)C1` (stereo not drawn) showed an IC50 of 140 nM.
`CCCCn1nc(C(=O)N2CCOCC2)c2c1-c1ccccc1S(=O)(=O)C2` was tested, and the IC50 was 377 nM.
For `CNc1cccc2c1S(=O)(=O)Cc1c(C(=O)N3CCOCC3)nn(-c3ccccc3)c1-2`, the IC50 was 3510 nM.
